Test system: IL-6 (THP-1 cells)
Assay: Inhibition of IL-6 in LPS-stimulated THP-1 human monocyte cells (HTRF)
Format: cell-based
Conditions: for inhibition at 10 µM: IL-6 assay in LPS-stimulated THP-1 cells, given only where EC50 >10 μM, meaning not given (top concentration 10 μM), read-out: percentage given in parentheses after EC50 >10; for EC50: inhibition of IL-6 in LPS-stimulated THP-1 cells, HTRF, 10-point dose-response starting from 10 μM
Summary of the method: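 Readout is the 665/620 nm HTRF ratio for secreted IL-6, normalized to DMSO wells, with EC50 from a variable-slope four-parameter fit, or % inhibition at 10 μM when above 10 μM. Cells (1% FBS, 24 h beforehand) got compound for 2 h, then LPS 500 ng/mL for 22 h at 37° C; top dose 10 μM, 0.1% DMSO.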

EC50 [µM] | Compound | inhibition at 10 µM [%]
> 10 | FC1(F)CCN(Cc2cncc(-c3cc4c(-c5cc6c(N7CCCCC7)cccc6[nH]5)n[nH]c4cn3)c2)C1 [Compound 194, 5-(5-((3,3-Difluoropyrrolidin-1-yl)methyl)pyridin-3-yl)-3-(4-(piperidin-1-yl)-1H-indol-2-yl)-1H-pyrazolo[3,4-c]pyridine] | 0
0.967 | CN1CCN(c2cccc3[nH]c(-c4n[nH]c5cnc(-c6cncc(NC(=O)C7CCC7)c6)cc45)cc23)CC1 [Compound 245] | –
> 10 | CC(C)(C)CC(=O)Nc1cncc(-c2cc3c(-c4cc5ccccc5[nH]4)n[nH]c3cn2)c1 [Compound 268, N-(5-(3-(1H-Indol-2-yl)-1H-pyrazolo[3,4-c]pyridin-5-yl)pyridin-3-yl)-3,3-dimethylbutanamide] | 25.1
0.092 | O=C(Nc1cncc(-c2cc3c(-c4cc5ccccc5[nH]4)n[nH]c3cn2)c1)C1CCCCC1 [Compound 275, N-(5-(3-(1H-Indol-2-yl)-1H-pyrazolo[3,4-c]pyridin-5-yl)pyridin-3-yl) cyclohexanecarboxamide] | –
> 10 | CS(=O)(=O)NCc1cc(F)cc(-c2cccc3[nH]c(-c4n[nH]c5cnc(-c6cncc(NC(=O)c7ccccc7)c6)cc45)cc23)c1 [Compound 487, N-(5-(3-(4-(3-Fluoro-5-(methylsulfonamidomethyl)phenyl)-1H-indol-2-yl)-1H-pyrazolo[3,4-c]pyridin-5-yl)pyridin-3-yl)benzamide] | 28.8
0.404 | Nc1cncc(-c2cc3c(-c4cc5ncccc5[nH]4)n[nH]c3cn2)c1 [Compound 507, 5-(3-(1H-Pyrrolo[3,2-b]pyridin-2-yl)-1H-pyrazolo[3,4-c]pyridin-5-yl) pyridin-3-amine] | –
0.999 | c1cnc2cc(-c3n[nH]c4cnc(-c5cncc(CNCC6CCCC6)c5)cc34)[nH]c2c1 [Compound 529, 1-(5-(3-(1H-Pyrrolo[3,2-b]pyridin-2-yl)-1H-pyrazolo[3,4-c]pyridin-5-yl)pyridin-3-yl)-N-(cyclopentylmethyl)methanamine] | –
0.438 | Fc1ccccc1-c1cccc2[nH]c(-c3n[nH]c4cnc(-c5cn[nH]c5)cc34)cc12 [Compound 567, 3-(4-(2-Fluorophenyl)-1H-indol-2-yl)-5-(1H-pyrazol-4-yl)-1H-pyrazolo[3,4-c]pyridine] | –

The remaining lines, values behind:

Compound | EC50 [µM] | inhibition at 10 µM [%]
Cc1ccncc1-c1cc2c(-c3cc4c(-c5cccc(F)c5)cccc4[nH]3)n[nH]c2cn1 [Compound 5, 3-(4-(3-Fluorophenyl)-1H-indol-2-yl)-5-(4-methylpyridin-3-yl)-1H-pyrazolo [3,4-c]pyridine] | > 10 | 30.7
O=C(Nc1cncc(-c2cc3c(-c4cc5c(-c6cccc(F)c6)cccc5[nH]4)n[nH]c3cn2)c1)c1ccccc1 [Compound 11, N-(5-(3-(4-(3-Fluorophenyl)-1H-indol-2-yl)-1H-pyrazolo[3,4-c]pyridin-5-yl)pyridin-3-yl)benzamide] | 3.21 | –
O=C(Nc1cncc(-c2cc3c(-c4cc5c(-c6cccc(F)c6)cccc5[nH]4)n[nH]c3cn2)c1)C1CCC1 [Compound 21, N-(5-(3-(4-(3-Fluorophenyl)-1H-indol-2-yl)-1H-pyrazolo[3,4-c]pyridin-5-yl)pyridin-3-yl)cyclobutanecarboxamide] | > 10 | 0
CC(C)CC(=O)Nc1cncc(-c2cc3c(-c4cc5c(-c6ccc(F)cc6)cccc5[nH]4)n[nH]c3cn2)c1 [Compound 30, N-(5-(3-(4-(4-Fluorophenyl)-1H-indol-2-yl)-1H-pyrazolo[3,4-c]pyridin-5-yl)pyridin-3-yl)-3-methylbutanamide] | 5.13 | –
O=C(Cc1ccccc1)Nc1cncc(-c2cc3c(-c4cc5c(-c6ccc(F)cc6)cccc5[nH]4)n[nH]c3cn2)c1 [Compound 38, N-(5-(3-(4-(4-Fluorophenyl)-1H-indol-2-yl)-1H-pyrazolo[3,4-c]pyridin-5-yl)pyridin-3-yl)-2-phenylacetamide] | > 10 | 29.4
O=C(Nc1cncc(-c2cc3c(-c4cc5c(-c6ccc(F)cc6)cccc5[nH]4)n[nH]c3cn2)c1)C1CCCCC1 [Compound 51, N-(5-(3-(4-(4-Fluorophenyl)-1H-indol-2-yl)-1H-pyrazolo[3,4-c]pyridin-5-yl)pyridin-3-yl)cyclohexanecarboxamide] | > 10 | 6.7
Fc1ccc(-c2cccc3[nH]c(-c4n[nH]c5cnc(-c6cncnc6)cc45)cc23)cc1 [Compound 55, 3-(4-(4-Fluorophenyl)-1H-indol-2-yl)-5-(pyrimidin-5-yl)-1H-pyrazolo[3,4-c]pyridine] | 9.59 | –
CC(C)C(=O)Nc1cncc(-c2cc3c(-c4cc5c(-c6ccccc6F)cccc5[nH]4)n[nH]c3cn2)c1 [Compound 65, N-(5-(3-(4-(2-Fluorophenyl)-1H-indol-2-yl)-1H-pyrazolo[3,4-c]pyridin-5-yl)pyridin-3-yl)isobutyramide] | > 10 | 30.1
CCCCC(=O)Nc1cncc(-c2cc3c(-c4cc5c(-c6ccccc6F)cccc5[nH]4)n[nH]c3cn2)c1 [Compound 75, N-(5-(3-(4-(2-Fluorophenyl)-1H-indol-2-yl)-1H-pyrazolo[3,4-c]pyridin-5-yl)pyridin-3-yl)pentanamide] | 0.003 | –
O=C(Nc1cncc(-c2cc3c(-c4cc5c(-c6ccccc6F)cccc5[nH]4)n[nH]c3cn2)c1)C1CC1 [Compound 76, N-(5-(3-(4-(2-Fluorophenyl)-1H-indol-2-yl)-1H-pyrazolo[3,4-c]pyridin-5-yl)pyridin-3-yl)cyclopropanecarboxamide] | > 10 | 11.1
Cc1ccncc1-c1cc2c(-c3cc4c(-c5ccncc5)cccc4[nH]3)n[nH]c2cn1 [Compound 117, 5-(4-Methylpyridin-3-yl)-3-(4-(pyridin-4-yl)-1H-indol-2-yl)-1H-pyrazolo [3,4-c]pyridine] | > 10 | 53
CC(C)(C)C(=O)Nc1cncc(-c2cc3c(-c4cc5c(-c6ccncc6)cccc5[nH]4)n[nH]c3cn2)c1 [Compound 120, N-(5-(3-(4-(Pyridin-4-yl)-1H-indol-2-yl)-1H-pyrazolo[3,4-c]pyridin-5-yl)pyridin-3-yl)pivalamide] | 2.5 | –
CC(C)(C)CC(=O)Nc1cncc(-c2cc3c(-c4cc5c(-c6ccncc6)cccc5[nH]4)n[nH]c3cn2)c1 [Compound 128, 3,3-Dimethyl-N-(5-(3-(4-(pyridin-4-yl)-1H-indol-2-yl)-1H-pyrazolo[3,4-c]pyridin-5-yl)pyridin-3-yl)butanamide] | > 10 | 0
O=C(Nc1cncc(-c2cc3c(-c4cc5c(-c6ccncc6)cccc5[nH]4)n[nH]c3cn2)c1)C1CCC1 [Compound 133, N-(5-(3-(4-(Pyridin-4-yl)-1H-indol-2-yl)-1H-pyrazolo[3,4-c]pyridin-5-yl)pyridin-3-yl)cyclobutanecarboxamide] | 0.251 | –
c1cc(-c2ccncc2)c2cc(-c3n[nH]c4cnc(-c5cncnc5)cc34)[nH]c2c1 [Compound 139, 3-(4-(Pyridin-4-yl)-1H-indol-2-yl)-5-(pyrimidin-5-yl)-1H-pyrazolo[3,4-c]pyridine] | > 10 | 3
O=C(Nc1cncc(-c2cc3c(-c4cc5c(N6CCCCC6)cccc5[nH]4)n[nH]c3cn2)c1)C1CC1 [Compound 188, N-(5-(3-(4-(Piperidin-1-yl)-1H-indol-2-yl)-1H-pyrazolo[3,4-c]pyridin-5-yl)pyridin-3-yl)cyclopropanecarboxamide] | 4.96 | –

From US10166218B2, “3-(1H-indol-2-yl)-1H-pyrazolo[3,4-C]pyridines and therapeutic uses thereof” (Samumed, LLC, priority 2015, dated 2019)
